According to US20260272926A1, “HIV-1P ROTEASE INHIBITORS AND USES THEREOF” (Purdue Research Foundation, priority 2023, published 2026):
Values joined by “and” are separate entries in the source; they are usually repeats but may differ in a detail not shown here. Identical values can stand only once. Like-named read-outs stand apart in the source and are kept apart here.

Experiments:
[1] = molecular target: T1, HIV-1 protease (Human immunodeficiency virus type 1 group M subtype B, UniProt P04585); test: HIV-1 protease enzyme-inhibitory assay (Toth and Marshall); assay type: biochemical; details: for Ki / Ki (nM): HIV-1 protease inhibitory activity
T1 construct: catalytically active dimeric HIV-1 protease
Method: (§1) The ability of the nilotinib subunit, pyridinyl-pyrimidinyl amino benzamides to serve as P2 ligands in the S2 subsite of HIV-1 protease was investigated. The HIV-1 protease inhibitory activity of these compounds was evaluated in an enzyme-inhibitory assay reported by Toth and Marshall. […] We also determined the antiviral activity of these inhibitors in MT-2 human-T-lymphoid cells exposed to HIVLAI. […] We then examined a pyridyl thiazole heterocycle in place of the pyridyl pyrimidinyl scaffold in compounds 5a-d.

[2] = tested on: HIVLAI; test: antiviral activity in MT-2 human-T-lymphoid cells exposed to HIVLAI; assay type: cell-based, HIV-1
Method: as §1

[3] = Human immunodeficiency virus 1, MT2, antiviral, MT-2 cells exposed to HIVLAI, Table 1 and text, read-out: IC50
[4] = Human immunodeficiency virus 1, MT2, antiviral, MT-2 cells exposed to HIVLAI, Table 2, read-out: IC50
[5] = antiviral, MT-2 cells exposed to HIVLAI, Table 1 and text

## COc1ccc(S(=O)(=O)N(CC(C)C)C[C@@H](O)[C@H](Cc2ccccc2)NC(=O)c2cc(Nc3nc(-c4cccnc4)cs3)ccc2C)cc1 [Compound 5h, N-((2S,3R)-3-hydroxy-4-((N-isobutyl-4-methoxyphenyl)sulfonamido)-1-phenylbutan-2-yl)-2-methyl-5-((4-(pyridin-3-yl)thiazol-2-yl)amino)benzamide]
[1]
  Ki: 8.7 nM
[2]; [3]
  IC50: 580 nM

## COc1ccc(S(=O)(=O)N(CC(C)C)C[C@@H](O)[C@H](Cc2ccccc2)NC(=O)c2ccc(C)c(Nc3nc(C(F)(F)F)cs3)c2)cc1 [Compound 5n, N-((2S,3R)-3-hydroxy-4-((N-isobutyl-4-methoxyphenyl)sulfonamido)-1-phenylbutan-2-yl)-4-methyl-3-((4-(trifluoromethyl)thiazol-2-yl)amino)benzamide]
[1]
  Ki: 60.3 nM
[2]; [4]
  IC50: > 1000 nM

## COc1ccc(S(=O)(=O)N(CC(C)C)C[C@@H](O)[C@H](Cc2ccccc2)NC(=O)c2ccc(C)c(Nc3nc(-c4cccnc4)cs3)c2C)cc1 [Compound 5i, N-((2S,3R)-3-hydroxy-4-((N-isobutyl-4-methoxyphenyl)sulfonamido)-1-phenylbutan-2-yl)-2,4-dimethyl-3-((4-(pyridin-3-yl)thiazol-2-yl)amino)benzamide]
[2]; [3]
  IC50: 510 nM

## COc1ccc(S(=O)(=O)N(CC(C)C)C[C@@H](O)[C@H](Cc2ccccc2)NC(=O)c2cccc(Nc3nc(-c4cccnc4)cs3)c2)cc1
[1]
  Ki (nM): Low nM
[2]; [5]
  IC50 (nM): Low nM

## COc1ccc(S(=O)(=O)N(CC(C)C)C[C@@H](O)[C@H](Cc2ccccc2)NC(=O)c2cc(Nc3nc(C)cs3)ccc2C)cc1 [Compound 5m, N-((2S,3R)-3-hydroxy-4-((N-isobutyl-4-methoxyphenyl)sulfonamido)-1-phenylbutan-2-yl)-2-methyl-5-((4-methylthiazol-2-yl)amino)benzamide]
[1]
  Ki: 75.9 nM
[2]; [4]
  IC50: > 1000 nM

## COc1ccc(S(=O)(=O)N(CC(C)C)C[C@@H](O)[C@H](Cc2ccccc2)NC(=O)c2cc(C)cc(Nc3nc(-c4cccnc4)cs3)c2)cc1 [Compound 5g, N-((2S,3R)-3-hydroxy-4-((N-isobutyl-4-methoxyphenyl)sulfonamido)-1-phenylbutan-2-yl)-3-methyl-5-((4-(pyridin-3-yl)thiazol-2-yl)amino)benzamide]
[1]
  Ki: 185 nM
[2]; [3]
  IC50: > 1000 nM

## COc1ccc(S(=O)(=O)N(CC(C)C)C[C@@H](O)[C@H](Cc2ccccc2)NC(=O)c2ccc(C)c(Nc3nccc(-c4cccnc4)n3)c2)cc1 [Compound 5a, N-((2S,3R)-3-hydroxy-4-((N-isobutyl-4-methoxyphenyl)sulfonamido)-1-phenylbutan-2-yl)-4-methyl-3-((4-(pyridin-3-yl)pyrimidin-2-yl)amino)benzamide]
[1]
  Ki: 0.028 nM
[1]; text b193
  enzyme inhibitory Ki: 28 PM
[2]; [3]
  IC50: 154 nM

## COc1ccc(S(=O)(=O)N(CC(C)C)C[C@@H](O)[C@H](Cc2ccccc2)NC(=O)c2cccc(Nc3nc(C)cs3)c2C)cc1 [Compound 5k, N-((2S,3R)-3-hydroxy-4-((N-isobutyl-4-methoxyphenyl)sulfonamido)-1-phenylbutan-2-yl)-2-methyl-3-((4-methylthiazol-2-yl)amino)benzamide]
[1]
  Ki: 71.9 nM
[2]; [4]
  IC50: > 1000 nM

## COc1ccc(S(=O)(=O)N(CC(C)C)C[C@@H](O)[C@H](Cc2ccccc2)NC(=O)c2ccc(C)c(Nc3nc(C)cs3)c2)cc1 [Compound 5j, N-((2S,3R)-3-hydroxy-4-((N-isobutyl-4-methoxyphenyl)sulfonamido)-1-phenylbutan-2-yl)-4-methyl-3-((4-methylthiazol-2-yl)amino)benzamide]
[1]
  Ki: 26 nM and 26.5 nM
[2]; Human immunodeficiency virus 1, MT2
  IC50: > 1000 nM
[2]; MT-2 cells exposed to HIVLAI
  antiviral activity (in words): did not show any appreciable antiviral activity

## COCc1csc(Nc2ccc(C)c(C(=O)N[C@@H](Cc3ccccc3)[C@H](O)CN(CC(C)C)S(=O)(=O)c3ccc(OC)cc3)c2)n1 [Compound 5p, N-((2S,3R)-3-hydroxy-4-((N-isobutyl-4-methoxyphenyl)sulfonamido)-1-phenylbutan-2-yl)-5-((4-(methoxymethyl)thiazol-2-yl)amino)-2-methylbenzamide]
[1]
  Ki: 18 nM
[2]; [3]
  IC50: 630 nM
[2]; [4]
  IC50: 630 nM

## COc1ccc(S(=O)(=O)N(CC(C)C)C[C@@H](O)[C@H](Cc2ccccc2)NC(=O)c2cc(C)cc(Nc3nc(C)cs3)c2)cc1 [Compound 5l, N-((2S,3R)-3-hydroxy-4-((N-isobutyl-4-methoxyphenyl)sulfonamido)-1-phenylbutan-2-yl)-3-methyl-5-((4-methylthiazol-2-yl)amino)benzamide]
[1]
  Ki: 80 nM
[2]; [4]
  IC50: > 1000 nM

## Cc1ccc(C(=O)N[C@@H](Cc2ccccc2)[C@H](O)CN(CC(C)C)S(=O)(=O)c2ccc3nc(NC4CC4)sc3c2)cc1Nc1cc(-c2cccnc2)ncn1
[1]
  Ki (nM): Low nM
[2]; [5]
  IC50 (nM): Low nM

## Cc1ccc(C(=O)N[C@@H](Cc2cc(F)cc(F)c2)[C@H](O)CN(CC(C)C)S(=O)(=O)c2ccc(N)cc2)cc1Nc1nccc(-c2cccnc2)n1 [Compound 5d, N-((2S,3R)-4-((4-amino-N-isobutylphenyl)sulfonamido)-1-(3,5-difluorophenyl)-3-hydroxybutan-2-yl)-4-methyl-3-((4-(pyridin-3-yl)pyrimidin-2-yl)amino)benzamide]
[1]
  Ki: 1.92 nM
[2]; [3]
  IC50: 212 nM
[2]; over compound 5c
  reduction in antiviral activity: 3 fold

## CC(C)CN(C[C@@H](O)[C@H](Cc1ccccc1)NC(=O)c1cccc(Nc2nc(-c3cccnc3)cs2)c1)S(=O)(=O)c1ccc2nc(NC3CC3)sc2c1
[1]
  Ki (nM): Low nM
[2]; [5]
  IC50 (nM): Low nM

## COc1ccc(S(=O)(=O)N(CC(C)C)C[C@@H](O)[C@H](Cc2cc(F)cc(F)c2)NC(=O)c2ccc(C)c(Nc3nccc(-c4cccnc4)n3)c2)cc1 [Compound 5c, N-((2S,3R)-1-(3,5-difluorophenyl)-3-hydroxy-4-((N-isobutyl-4-methoxyphenyl)sulfonamido)butan-2-yl)-4-methyl-3-((4-(pyridin-3-yl)pyrimidin-2-yl)amino)benzamide]
[1]
  Ki: 0.58 nM
[2]; [3]
  IC50: 124 nM

## COc1ccc(S(=O)(=O)N(CC(C)C)C[C@@H](O)[C@H](Cc2ccccc2)NC(=O)c2ccc(C)c(Nc3nc(-c4cccnc4)cs3)c2)cc1 [Compound 5e, N-((2S,3R)-3-hydroxy-4-((N-isobutyl-4-methoxyphenyl)sulfonamido)-1-phenylbutan-2-yl)-4-methyl-3-((4-(pyridin-3-yl)thiazol-2-yl)amino)benzamide]
[1]
  Ki: 38.3 nM
[2]; [3]
  IC50: 390 nM

## Cc1ccc(C(=O)N[C@@H](Cc2ccccc2)[C@H](O)CN(CC(C)C)S(=O)(=O)c2ccc(N)cc2)cc1Nc1nccc(-c2cccnc2)n1 [Compound 5b, N-((2S,3R)-4-((4-amino-N-isobutylphenyl)sulfonamido)-3-hydroxy-1-phenylbutan-2-yl)-4-methyl-3-((4-(pyridin-3-yl)pyrimidin-2-yl)amino)benzamide]
[1]
  Ki: 0.17 nM
[2]; antiviral, MT-2 cells exposed to HIVLAI, Table 1 and text, read-out: IC50
  IC50: 66.8 nM

## COc1ccc(S(=O)(=O)N(CC(C)C)C[C@@H](O)[C@H](Cc2ccccc2)NC(=O)c2cccc(Nc3nc(-c4cccnc4)cs3)c2C)cc1 [Compound 5f, N-((2S,3R)-3-hydroxy-4-((N-isobutyl-4-methoxyphenyl)sulfonamido)-1-phenylbutan-2-yl)-2-methyl-3-((4-(pyridin-3-yl)thiazol-2-yl)amino)benzamide]
[1]
  Ki: 19.3 nM
[2]; [3]
  IC50: > 1000 nM
[2]; MT-2 cells exposed to HIVLAI
  antiviral activity (in words): did not exhibit any appreciable antiviral activity

## COc1ccc(S(=O)(=O)N(CC(C)C)C[C@@H](O)[C@H](Cc2ccccc2)NC(=O)c2cccc(Nc3nc(C(F)(F)F)cs3)c2C)cc1 [Compound 5o, N-((2S,3R)-3-hydroxy-4-((N-isobutyl-4-methoxyphenyl)sulfonamido)-1-phenylbutan-2-yl)-2-methyl-3-((4-(trifluoromethyl)thiazol-2-yl)amino)benzamide]
[1]
  Ki: 72 nM
[2]; [4]
  IC50: > 1000 nM
